Reference: US6395752B1, “Method of treating depression using 1-threo-methylphenidate” (Pharmaquest Limited, priority 1999, dated 2002)
Marks after values point to notes of the source that are not given here.

What was measured:
[1] = plasma; i.v. 10 mg d1-MPH; 11 healthy male volunteers; mean ± SD; cited from earlier work
[2] = after oral administration of the racemic drug; cited from earlier work
[3] = Profile of Mood State (POMS) rating scale, randomized 4-phase cross-over study, intravenous administration; type: in vivo, healthy male volunteers; conditions: i.v.; for Rank order of ratings for Tension, Depression and Anger: three components of Dysphoria, same order in each case; for Vigor ratings: POMS Vigor-Activity
From the text: The Profile of Mood State (POMS) rating scale was used to estimate pharmacodynamic factors including Anger-Hostility, Confusion-Bewilderment, Depression-Dejection, Fatigue-Inertia, Tension-Anxiety, and Vigor-Activity. In addition composite scores were also produced for “Energy” (“Vigor-Activity” minus “Fatigue-Inertia”) and “Dysphoria” (“Anger-Hostility” plus “Depression-Rejection” plus “Tension-Anxiety”).

[4] = oral, cited from earlier work

SMILES	t1/2 [1]	Absolute bioavailability (F) [2]	Rank order of ratings for Tension, Depression and Anger [3]	Vigor ratings ([3]; healthy male volunteers)	Effect on "Energy" composite score ([3]; healthy male volunteers)	POMS rating for Fatigue-Inertia ([3]; healthy male volunteers)	Hamilton depression scale decrease, subjects with minimal decrease ([4]; 3 subjects) [%]	Hamilton depression scale decrease, subjects with marked decrease ([4]; 7 subjects) [%]	Benefit in depressed patients ([4]; older, medically ill depressed patients, n=16)
COC(=O)[C@@H](c1ccccc1)[C@@H]1CCCCN1 [1-MPH, 2S,2′S-methyl 2-phenyl-2-(2′-piperidyl) acetate]	3.61 ± 1.12^b	0.05	1-MPH<placebo<d1-MPH<d-MPH						
COC(=O)[C@H](c1ccccc1)[C@H]1CCCCN1 [d-MPH, d-threo-methylphenidate]			1-MPH<placebo<d1-MPH<d-MPH	significantly different from those for 1-MPH and placebo	not strongly energizing	significantly different from those after 1-MPH			
COC(=O)[C@H](c1ccccc1)[C@H]1CCCCN1 [d1-MPH, d1-threo-methylphenidate]			1-MPH<placebo<d1-MPH<d-MPH	significantly different from those for 1-MPH and placebo	enhanced		< 30	> 55	statistically and clinically significant
